Measurements published in US20260242359A1, “IRHOM2 INHIBITORS AND USES THEREOF” (NEW YORK SOCIETY FOR THE RELIEF OF THE RUPTURED AND …, priority 2023, published 2026).

Columns and labels:
Format in all cases: cell-based
[1] = system: TNFα release from LPS-stimulated THP-1 cells (iRhom2/ADAM17-dependent); assay: Primary screen (Example 1b): LPS-stimulated TNFα release from THP-1 cells, HTRF; details: Homo sapiens, overnight pre-incubation, LPS 100 ng/mL, 3 h, normalized against 10 μM Batimastat
Description: (§1) Two separate screens to identify novel small molecule inhibitors of iRhom2/ADAM17 activity were developed. […] Therefore, the primary screen for small molecule inhibitors of iRhom2/ADAM17 was a screen for inhibitors that blocked the release of TNFα from LPS-stimulated THP-1 human myeloid cells, a process that depends on iRhom2 and ADAM17. Since the release of TNFα from THP-1 cells can be blocked at many stages of the LPS/TLR4/iRhom2/ADAM17 pathway, a secondary screen was performed for another iRhom2/ADAM17 selective substrate, Kit-ligand 2 (KL-2) (Maretzky T et al. (July 2013), “iRhom2 controls the substrate selectivity of stimulated ADAM17-dependent ectodomain shedding”, PNAS 110(28): 11433-11438) in a different human cell type, human embryonic kidney cells (HEK 293).
THP-1 cells were plated in low volume 384 wells (10,000 cells per well in 12.6 μL RPMI medium) together with inhibitors or 10 μM BB94 and incubated over night. The next day, TNFα shedding was initiated by stimulation of THP-1 cells with 100 ng/mL LPS (1.8 μL of an 800 ng/mL LPS stock) for 3 hrs at 37° C. The extent of released TNFα was detected with the corresponding HTRF antibodies labeled with europium cryptate (donor) and d2 (acceptor). The HTRF signal was generated by proximity of europium cryptate and d2. All detection reagents were purchased from Cisbio. TNFα detection was performed according to the manufacturer's protocol (Product Insert for Cisbio TNFα (h) Kit Part #62HTNFAPEG & 62HTNFAPEH; https://www.cisbio.com/media/asset/c/i/cisbio_dd_pi_62htnfapeg-62htnfapeh.pdf, accessed Sep. 28, 2020).
Low volume 384 well plates were pre-coated with small molecule library compounds for a final concentration of 20 μM in a 15 μL reaction, or 0.75 μL of 200 μM stock of BB94 in 5% DMSO (final concentration 0.25%). 12.6 μL of cell suspension [8E5/mL; 10,000 cells/well; culture RPMI medium] and pre-incubated at 37° C., 5% CO2, over night. The next day, 1.8 μL of an 800 ng/mL LPS stock was added [final concentration 100 ng/mL in 15 μL assay] and the cells were incubated at 37° C., 5% CO2, for 3 h. Subsequently, 3 μL of the HTRF-mix [used at 1:3 dilution of cisbio HTRF human TNF] was added and the plates were incubated for an additional 2 hrs at 25° C. After an incubation at room temperature for 2 h, the HTRF readout was performed. Then data evaluation for normalization against the 10 μM Batimastat control (=100% […]) was applied.

[2] = system: PMA-stimulated TGFα release from HEK-293 cells (substrate of iRhom1/ADAM17 and iRhom2/ADAM17); assay: Counter screen (Example 4b): PMA-stimulated TGFα release from HEK-293 cells, AP readout; details: Homo sapiens, HEK293, HEK-293 cells expressing TGFα-AP, PMA 100 ng/mL, 2 h
Description: A tertiary counterscreen was also performed to monitor the release of TGFα, which is a substrate of iRhom1/ADAM17 and iRhom2/ADAM17, so its release should not be blocked by an iRhom2-selective inhibitor (Maretzky T et al. (July 2013), “iRhom2 controls the substrate selectivity of stimulated ADAM117-dependent ectodomain shedding”, PNAS 110(28): 11433-11438; and Li X et al. (May 2015), “iRhoms 1 and 2 are essential upstream regulators of ADAM17-dependent EGFR signaling”, PNAS 112(19): 6080-6085).
(§2) Expression plasmids for alkaline phosphatase (AP)-fused human KL2 and TGFα had been previously designed and generated through gene synthesis followed by subcloning into the pcDNA3.1(+)/Hygro expression vector. […] Subsequently, DNA amplifications were performed to obtain sufficient amounts of the expression vectors. The quality of DNA and gene sequences were confirmed through restriction digest and Sanger sequencing. In parallel, cell culture of HEK-293 cells was initiated. Master and working cell banks were prepared, scaled up and transfected with the respective constructs by electroporation. During cell culturing, cell density and viability were monitored to ensure optimal conditions for the transfections. After PMA stimulation, AP-coupled KL2 or TGFα were detected by measurement of AP activity in the supernatant.
(§3) After electroporation, cells were further cultured in presence of selection antibiotics, hygromycin B, to generate stably transfected polyclonal cell pools. For both assays, KL2 and TGFα shedding, the respective selected pool turned out to be suitable. Final assay conditions were determined for the selected pools. For all experiments, batimastat (BB94, 10 μM) was used as positive control for full inhibition of KL2 or TGFα shedding.
(§4) The wells of sterile 384-well flat bottom clear plates for TGF-AP assays were coated with 10 μL of 0.1 mg/mL poly-d-lysine for 3-4 hr at 25° C. or overnight at 4° C., then washed 2× with PBS and patted dry. 60 μL of cells (20,000/well) were added to the sterile 384-well plate and incubated in Optimem (with 2% FCS and 1% Pen-strep) overnight at 37° C. (5% CO2). After incubation overnight, 55 μL medium were removed with a BioTek EL406 and 10 μL of prediluted compounds were added to the cells for a final concentration of 20 μM. After incubation for 15 min, 15 μL of PMA (100 ng/mL final conc.) were added. The cells were incubated for 2 h at 37° C. (5% CO2). Then, the plates were centrifuged for 5 min at 1000 rpm and 12 μL of the supernatant was transferred to a fresh 384 well plate. 12 μL of pNPP p-nitrophenyl phosphate (final 1 M pNPP) was added. AP reaction was performed for 1 h at 37° C. The reaction was stopped by addition of 12 μL of NaOH (1 M final conc.), the plates were centrifuged to remove air bubbles and the absorbance of pNP was measured at 405 nm.

[3] = system: PMA-stimulated KL2 release from HEK-293 cells (iRhom2/ADAM17 selective substrate); assay: Secondary screen (Example 3b): PMA-stimulated KL2 release from HEK-293 cells, AP readout; details: Homo sapiens, HEK293, HEK-293 cells expressing KL2-AP, PMA 100 ng/mL, 2 h, read-out: Secondary Screen IC50 KitL2
Description: as §1, §2, §3
as §4, with “for KL2-AP” for “for TGF-AP”, “cells (40,000/well)” for “cells (20,000/well)”, “and 3” for “and 12”, “well plate and 9 μL of AP Balance Buffer was added per well.” for “well plate.”

In the case of CC(=O)Oc1ccccc1Cn1c(C)c(C(=O)NCc2cccs2)sc1=O [Compound 6], the IC50 [1] is reported as 4.86 µM, the IC50 [2] is reported as > 40 µM and the IC50 [3] is reported as > 40 µM.
